Data: publication PMC10518255, “A first-in-class pan-lysyl oxidase inhibitor impairs stromal remodeling and enhances gemcitabine response and survival in pancreatic cancer” (Nature Cancer, 2023)
“And” between values parts separate entries of the source, which are not always exact repeats. Equal entries are not always repeated.

What was measured:
KPC PDAC tumors = assay: Tumor weight at end point, KPC survival study; type: in vivo, mouse; details: Extended Data 5B; KPC tumours; individual animals
From the text: Treatment of KPC mice with gemcitabine led to a slowing of primary tumor progression, increasing survival from a median survival of 85 days in untreated mice to 125 days in gemcitabine-treated mice (P = 0.0005) (Fig. 4b,c, blue versus red). PXS-5505 as a monotherapy led to no changes in median survival compared to vehicle (85 versus 81 days) (Fig. 4c, blue versus green).
Extended Data Fig. 5 PXS-5505 in combination with gemcitabine in vivo. a. […] Signal is defined as the enzyme activity in the aorta, while noise is measured in the presence of a high concentration (300 µM) BAPN to abolish any lysyl oxidase family activity. […] Data presented as mean values +/− SD b. […] Data presented as mean values +/− SD. c. FITC-dextran (molecular weight: 10 kDa) signal quantification from KPC tumor end point from each treatment group (vehicle n = 3 biologically independent animals, PXS-5505 n = 5 biologically independent animals, Gem n = 5 biologically independent animals, PXS-5505 + Gem n = 5 biologically independent animals). 4 ROIs taken per mouse. P-values determined by Welchs t-test. […] Quantification of red birefringent (mature) collagen fibers from human PDXs at end point after 3 cycles of treatment, treated as indicated. […] P values determined by Welchs t-test. g. […] Quantification of green birefringent (nascent) collagen fibers from human PDXs at end point, treated as indicated. […]

TKCC10 human PDX tumors = assay: TKCC10 human model, FITC-dextran perfusion (Extended Data Fig. 5f); type: in vivo, mouse; details: for FITC-dextran (10 kDa) signal quantification: Extended Data 5F, human PDXs, individual FOV
Protocol: Subcutaneous PDX studies were performed by implanting early passage PDX pieces (~4 mm^3) or TKCC10 CCs (1.5 × 10^6 cells per mouse in 100 μl PBS/Matrigel 1:1) into female (PDX) or male (TKCC10) 8-week-old immunocompromised nude Balb/c-Fox1nuAusb mice subcutaneously on the left flank. For the duration of the study, mice were kept in conventional caging with environmental enrichment, access to standard chow, water ad libitum and 12-h light–dark cycle at ambient temperature and humidity. Treatment began when tumors reached 150 mm^3, where each mouse was randomized into a treatment group and administered gemcitabine HCl (100 mg kg^−1 in saline) (Jomar Life Research) or vehicle control (0.9% saline) by i.p. injection twice weekly on day 2 and 4 of the treatment cycle until an ethical end point was reached. These included maximal tumor mass ≥10% of body weight, weight loss ≥20% from maximum body weight or tumor interfering with mobility and affecting access to food and water. […] Tumor size was monitored every second day by calipers. Tumor volume was calculated using the formula (length × width^2)/2. […]
FITC-dextran (10 kDa) was administered at 40 mg ml^−1 in saline via tail vain 2 h before culling. […] Images were quantified using Fiji Software for Integrated Density Signal.
Extended Data Fig. 5 PXS-5505 in combination with gemcitabine in vivo. a. […] Signal is defined as the enzyme activity in the aorta, while noise is measured in the presence of a high concentration (300 µM) BAPN to abolish any lysyl oxidase family activity. […] FITC-dextran (molecular weight: 10 kDa) signal quantification from KPC tumor end point from each treatment group (vehicle n = 3 biologically independent animals, PXS-5505 n = 5 biologically independent animals, Gem n = 5 biologically independent animals, PXS-5505 + Gem n = 5 biologically independent animals). […] P-values determined by Welchs t-test. […] Quantification of red birefringent (mature) collagen fibers from human PDXs at end point after 3 cycles of treatment, treated as indicated. […] P values determined by Welchs t-test. g. […]

| SMILES | Tumour weight at endpoint (KPC PDAC tumors) | FITC-dextran (10 kDa) signal quantification (TKCC10 human PDX tumors) | FITC-dextran signal (tumor perfusion) (TKCC10 human PDX tumors; TKCC10 model) |
| --- | --- | --- | --- |
| Nc1ccn([C@@H]2O[C@H](CO)[C@@H](O)C2(F)F)c(=O)n1 [Gem, gemcitabine] | 0.28 grams and 0.51 grams and 0.6 grams and 0.69 grams and 0.41 grams and 0.462 grams and 0.3 grams and 0.26 grams and 0.37 grams and 1.42 grams and 0.75 grams and 0.63 grams and 1.2 grams and 0.7 grams and 0.4 grams | 94281 and 105741 and 104921 and 268246 and 141904 and 94336 and 85811 and 123546 and 103971 and 163288 and 111668 and 293663 and 289768 and 460793 and 155579 and 95059 and 92172 and 111389 and 85819 and 99312 | significantly reduced FITC signal |
| Cl.Cl.NC/C=C(\F)CS(=O)(=O)c1cccc2cccnc12.O [PXS-5505, (Z)-3-fluoro-4-(quinolin-8-ylsulfonyl)but-2-en-1-amine dihydrochloride monohydrate] | 0.55 grams and 0.54 grams and 0.19 grams and 0.83 grams and 0.33 grams and 1.18 grams and 0.43 grams and 0.96 grams and 1.94 grams and 0.78 grams and 1.16 grams and 1.34 grams and 0.68 grams and 0.3 grams and 1.3 grams and 0.5 grams and 0.8 grams | 217149 and 705678 and 861620 and 155219 and 311738 and 1148786 and 651132 and 524503 and 645010 and 362873 and 336536 and 501004 and 447832 and 108773 and 210759 and 520769 and 406359 and 125675 and 423935 and 547504 |  |
